# Source: publication PMC6212398, “Competing protein-protein interactions regulate binding of Hsp27 to its client protein tau” (Nature Communications, 2018)
# Entries after “also recorded” stand apart in the source; their conditions may differ. Ends that are not written are not given here.
# How the values were obtained:
# [1] = biological target: T1, Hsp27 ACD (Homo sapiens, UniProt P04792); assay: ITC of IPV-derived peptides with purified Hsp27 ACD; format: binding; conditions: Fig. 1d, 25 °C, one-site model; for N (binding stoichiometry): peptide (1 mM) into Hsp27 ACD (100 µM)
# T1 construct: Hsp27 ACD (residues Q80–S176); made in house; host or cells: E. coli BL21 (DE3)
# T1 sequence (P04792 80-176): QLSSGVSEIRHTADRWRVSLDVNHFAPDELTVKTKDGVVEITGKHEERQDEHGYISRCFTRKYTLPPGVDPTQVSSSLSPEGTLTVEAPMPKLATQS
# Method: (§1) For experiments with BAG3, proteins were dialyzed overnight against ITC buffer (25 mM Hepes, 5 mM MgCl2, 100 mM KCl, pH 7.5). For experiments with peptides, sHSPs were dialyzed overnight against SEC buffer, and peptides were dissolved in dialysis buffer. Concentrations were determined using BCA assays (Thermo Scientific), and the ITC experiment was performed with a MicroCal ITC200 (GE Healthcare) at 25 °C. In BAG3 experiments, sHSP (200 µM) in the syringe was titrated into a 10 μM cell solution of BAG3 protein. For peptide binding experiments, peptide (1 mM) was titrated into a cell containing Hsp27 proteins (100 µM). Calorimetric parameters were calculated using Origin® 7.0 software and fit with a one-site binding model.
# [2] = biological target: T2, Hsp27 WT (Homo sapiens, UniProt P04792); assay: ITC of optimized IPV peptide with Hsp27 WT; format: binding; conditions: Fig. 4b, peptide (1 mM) into full-length Hsp27 WT (100 µM), 25 °C, mean ± SEM, minimum of three independent experiments
# T2 construct: Vectors for the expression of full-length human Hsp27; made in house; host or cells: E. coli BL21 (DE3)
# T2 sequence (P04792 whole entry): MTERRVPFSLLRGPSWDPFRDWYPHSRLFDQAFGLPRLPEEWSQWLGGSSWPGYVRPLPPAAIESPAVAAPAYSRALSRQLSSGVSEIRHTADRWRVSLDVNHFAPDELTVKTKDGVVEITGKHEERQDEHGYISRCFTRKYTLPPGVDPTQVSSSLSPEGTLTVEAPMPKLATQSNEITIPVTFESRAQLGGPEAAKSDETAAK
# Method: as §1
# [3] = biological target: T3, ΔNTD GPG (Homo sapiens, UniProt P04792, I181G/V183G); assay: ITC of optimized IPV peptide with Hsp27 ΔNTD GPG; format: binding; conditions: Fig. 4b, peptide (1 mM) into ΔNTD GPG (100 µM), 25 °C, mean ± SEM, minimum of three independent experiments
# T3 construct: For all other Hsp27 constructs (GPG, ΔNTD consisting of residues 80–205); inferred from the PMCSG7 vector and Ni-NTA purification) (N); made in house; host or cells: E. coli BL21 (DE3)
# T3 sequence (P04792 80-205 I181G/V183G limits assumed): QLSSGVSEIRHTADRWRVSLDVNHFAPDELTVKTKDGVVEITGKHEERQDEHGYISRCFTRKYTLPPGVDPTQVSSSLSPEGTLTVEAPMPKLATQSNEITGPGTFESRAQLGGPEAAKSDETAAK
# Method: as §1
# [4] = biological target: T4, Hsp27 3D (Homo sapiens, UniProt P04792, S15D/S78D/S82D); assay: ITC of optimized IPV peptide with Hsp27 3D; format: binding; conditions: Fig. 4b, peptide (1 mM) into Hsp27 3D (100 µM), 25 °C, mean ± SEM, minimum of three independent experiments
# T4 construct: Sample aggregation curves of tau constructs with full-length Hsp27; made in house; host or cells: E. coli BL21 (DE3)
# T4 sequence (P04792 whole entry S15D/S78D/S82D): as the sequence (P04792 whole entry) above, with S15D, S78D, S82D counted along it
# Method: as §1
# [5] = system: 0N4R tau; assay: Tau aggregation assay (thioflavin T fluorescence), 0N4R; format: biochemical, human; conditions: 10 μM tau, chaperone 1:1 molar ratio (10 μM), heparin 44 µg/mL, 37 °C, Dulbecco's PBS pH 7.4
# Method: (§2) Aggregation assays were performed as previously described. Briefly, all proteins were dialyzed overnight at 4 °C into assay buffer (Dulbecco’s PBS pH7.4, 2 mM MgCl2, 1 mM DTT). 0N4R or K18 Tau (10 μM) was pre-incubated in the presence/absence of chaperones (5–20 μM) for 30 min at 37 °C. Thioflavin T (Sigma) at a final concentration of 10 μM was added and aggregation was induced by the addition of a freshly prepared heparin sodium salt solution (Santa Cruz) at a final concentration of 44 µg/mL. For non-induced controls, assay buffer was added in place of heparin solution. The aggregation reaction was carried out at 37 °C with continuous shaking and monitored via Thioflavin T fluorescence (excitation = 444 nm, emission = 485 nm, cutoff = 480 nm) in a Spectramax M5 microplate reader (Molecular Devices). Readings were taken every 5 min for a minimum of 24 h. Baseline curves of non-induced controls (three replicates) were subtracted from induced samples (three replicates).
# [6] = system: K18 tau; assay: Tau aggregation assay (thioflavin T fluorescence), K18; format: biochemical, human; conditions: 10 μM tau, chaperone 1:1 molar ratio (10 μM), heparin 44 µg/mL, 37 °C, Dulbecco's PBS pH 7.4
# Method: as §2
# [7] = system: K18 tau; assay: 15N K18 HSQC / TROSY-HSQC NMR with unlabeled Hsp27 constructs; format: binding, human; conditions: 50 µM 15N K18, 100 µM Hsp27 construct (2:1), 10 °C, TROSY titration
# Method: For ^15N K18 HSQC NMR experiments, all proteins were dialyzed overnight into NMR buffer (25 mM HEPES pH 7.4, 10 mM KCl, 5 mM MgCl2, 1 mM TCEP, 10% (v/v) D2O). Then, samples containing 50 μM ^15N-labeled tau and 50 or 100 μM unlabeled chaperone in NMR buffer were prepared. 2D HSQC spectra were acquired at 10 °C on a Bruker Avance AV800 spectrometer equipped with a cryoprobe. 16 scans were acquired per t1 value and spectral widths of 2100 Hz and 10,416 Hz were used in the ^1H and ^15N dimensions, respectively. Spectra were processed using rNMR and Sparky based on deposited tau assignments (Barre 2013, BioMagResBank accession number 19253). Signal intensity ratios were calculated using Prism, by dividing the intensity of chaperone-bound peaks by intensity of the same peak in the unbound spectra.
# The ^15N TROSY HSQC experiments were performed on a Bruker Avance 800 MHz spectrometer equipped with the TXO cryogenic probe at 283 K. The [U-^15N] K18 proteins were dissolved at a concentration of 0.05–0.15 mM in 25 mM Hepes, 10 mM KCl, 5 mM MgCl2, 1 mM TCEP at pH 7.0 and titrated with the Hsp27 proteins in the same buffer. The ^1H–^15N TROSY HSQC experiments were performed with 2048 direct (^1H) and 512 indirect (^15N) points with the spectral width of 16 ppm and 36 ppm, respectively. All NMR spectra were processed by Topspin 3.1, and analyzed with Sparky (Goddard and Kneller, SPARKY 3-NMR Assignment and Integration Software. University of California, San Francisco, CA).
# [8] = Thermal shift assay (differential scanning fluorimetry); format: physicochemical; conditions: DSF, 0.3 mg/mL in 50 mM NaPi pH 7.4, 700 mM NaCl, 50 mM LiCl, SYPRO Orange
# Method: Samples of Hsp27 (25 µL; 0.3 mg/mL) in DSF buffer (50 mM NaPi pH 7.4, 700 mM NaCl, 50 mM LiCl) with a 5× final concentration of SYPRO Orange (Sigma) were placed into a white 96-well plate with optically clear caps. Melt curves were acquired on a Stratagene Mx300P RT-PCR using the SYPRO filter set. Samples were heated from 25 to 95 °C in 1 °C increments for 2 min, cooled to 25 °C at each cycle, and fluorescence was measured. The melting temperature was determined using a Boltzmann fit in Prism.
# [9] = system: K18 tau; assay: Competitive ELISA on immobilized K18 tau saturated with biotin-labelled Hsc70; design: species or system human; conditions: Supplementary Figure 3A, binding not saturable, read-out: IC50 (estimated), competition with biotin-labelled Hsc70 for immobilized K18 tau
# From the text: B. Hsp27 ACD binding to K18tau cannot be measured by ITC
# A. Hsp27 ACD has a weak affinity for tau,by ELISA
# C. The interaction is also estimated tobe weak by NMR titration[Competitor], uM
# D. NMR titration of VQIVYK peptide into
# Supplementary Figure 3. Hsp27 ACD has a weak affinity for K18 tau. (A) K18 tau was immobilized onto ELISA plates and saturated with biotin-labelled, human Hsc70, which shares binding sites with Hsp27 ACD in the MTBRs. Competition with unlabelled Hsc70 (control) or Hsp27 ACD was then carried out. Hsp27 ACD was estimated to have an IC50 > 100 µM. (B) Binding of Hsp27 ACD to K18 tau was not able to be measured by ITC, due to solubility limits. (C) NMR titrations (see Figure S5A) also […]
# interaction. CSPs of Hsp27 ACD in the presence of 3.3-fold molar excess of PHF6* peptide (500 µM).
# (also on this page, place not known: [Competitor], OD450 tau, K18 tau to be by 4 normalized CSP [((δN/5) +γH ); ppm] 2 0.52 CSP (PPM) titration Hsp27) […]
# [10] = system: BAG3; assay: Interaction of Hsp27 ACD with BAG3 by FCPIA; format: binding; conditions: Supplementary Figure 4
# [11] = biological target: T1, Hsp27 ACD; assay: NMR titration of VQIVYK peptide into 1H-15N Hsp27 ACD; format: binding; conditions: 1H-15N ACD spectra, 3.3-fold molar excess of peptide (500 µM), Supplementary Figure 3D
# [12] = Fig. 4a, Boltzmann fit, mean ± SD of three independent experiments
substance,measurement,setting,value
EITIPVTFE [Hsp27 IPV],N (binding stoichiometry),[1],0.90
same,Kd,"[1]; peptide (1 mM) titrated into Hsp27 ACD (100 µM), SEC buffer (50 mM sodium phosphate, 100 mM NaCl), mean ± SEM, minimum of three independent experiments, ND = no detectable binding",> 25 µM
EITIPVTHE [Hsp27 IPV H],Kd,[2],does not bind
same,Kd,[3],14.3 µM
same,Kd,[4],> 50 µM
Hsp27 X: WT Hsp27 cross-linked with gluteraldehyde,Effect on aggregation of 0N4R tau (ThT fluorescence),[5],severely compromised
same,Effect on aggregation of K18 tau (ThT fluorescence),[6],severely compromised
"3D: pseudo-phosphorylation mutant; S15, S78 and S82 replaced with aspartate",Binding to 15N K18 tau by NMR (peak broadening / CSPs),[7],binds to K18’s aggregation motifs
same,Effect on aggregation of 0N4R tau (ThT fluorescence),[5],retains the ability to prevent tau aggregation
same,TM,[8]; Supplementary Figure 8A,72.2 ± 0.85 °C
Hsp27 ACD: α-crystallin domain of human Hsp27 (residues Q80–S176),Binding to 15N K18 tau by NMR (peak broadening / CSPs),[7],weak and unsaturable
same,Effect on aggregation of 0N4R tau (ThT fluorescence),[5],no effect
same,IC50,[9],> 100 µM
same,Effect on aggregation of K18 tau (ThT fluorescence),[6],no effect
"ΔNTD: Hsp27 with NTD deleted, residues 80–205",Effect on aggregation of 0N4R tau (ThT fluorescence),[5],ablated Hsp27’s ability to delay tau aggregation
same,Effect on aggregation of K18 tau (ThT fluorescence),[6],ablated Hsp27’s ability to delay tau aggregation
WT: full-length human Hsp27,Binding to 15N K18 tau by NMR (peak broadening / CSPs),[7],does not
same,Binding to 15N K18 tau by NMR (peak broadening / CSPs),[7]; listed as full-length Hsp27,no broadening or CSPs
same,Effect on aggregation of 0N4R tau (ThT fluorescence),[5],prevents aggregation
same,TM,[8]; [12],73.1 ± 1.1 °C
same,TM,[8]; Supplementary Figure 8A,72.2 ± 1.0 °C
same,Effect on aggregation of K18 tau (ThT fluorescence),[6],prevents aggregation
L157A ACD: Hsp27 ACD mutant L157A,BAG3 binding,[10],deficient in BAG3 binding
"VQIVYK [PHF6* peptide, 6-mer PHF6* peptide from tau]",Binding to Hsp27 ACD by NMR titration (chemical shift changes),[11],unable to produce saturable chemical shift changes
same,Binding to Hsp27 ACD by NMR titration (chemical shift changes),[11]; listed as VQIVYK peptide,weak interaction; also recorded: weak/no
EIAIPVTHE [T180A],N (binding stoichiometry),[1],0.65
GPG: Hsp27 with isoleucine and valine of the IPV mutated to glycine,Binding to 15N K18 tau by NMR (peak broadening / CSPs),[7],bound to K18
same,TM,[8]; [12],66.8 ± 0.3 °C
